The text below walks through data of US20040132780A1, “Method and compositions for treating migraines” (priority 2001, published 2004).

The structures appear in SMILES notation.

This series is described as follows: pharmacokinetics of etoricoxib compared to traditional NSAIDs. In kind it is in vivo. Particulars: as compared to traditional NSAIDs such as naproxen.

On to `Cc1ccc(-c2ncc(Cl)cc2-c2ccc(S(C)(=O)=O)cc2)cn1` [Etoricoxib, etoricoxib], for which the half-life result was “longer” and the “time to maximum concentration” value was “shorter”.
